Assay results: the NIST ThermoML archive (doi:10.1021/acs.jced.5b00675)

Settings: Liquid, Closed cell (Static) method

FCC(F)(F)F [1,1,1,2-tetrafluoroethane]
Settings | vapor or sublimation pressure [kPa]
258.2 K | 162
262.2 K | 193
272.2 K | 286
282.6 K | 411
292.9 K | 569
302.7 K | 763
